In brackets after ≈: the same amount, converted by molar mass.
Test system: up to 32 different microorganisms
Experiment: in vitro antibacterial activity (MIC), agar dilution on Brain Heart Infusion (BHI) agar with Steers replicator
Assay type: cell-based
Details: unit assumed
Outline: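 Up to 32 strains were replicator-inoculated (1:100, or 1:10 for Micrococcus and Streptococcus) onto BHI agar plates holding serial compound dilutions and kept 20-24 h at 35-37° C. Plates were read visually against drug-free growth controls, with erythromycin A run alongside; MIC was the lowest concentration giving no growth, slight haze or sparse colonies.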

Structure (SMILES): CCC1OC(=O)C(C)C(=O)C(C)C(OC2OC(C)CC(N(C)C)C2O)C(C)(OCC=Cc2cccc(-c3ccccc3)c2)CC(C)C(=O)C(C)C2NC(=O)OC12C (stereo not shown) [Example 280, Compound of Formula (IX): L is CO, T is NH2, R is —CH2CH═CH-(3-biphenyl)]
- MIC (organism code AA): 0.39 µg/mL
- MIC (organism code BB): 0.39 µg/mL
- MIC (organism code CC): 50 µg/mL
- MIC (organism code DD): 0.39 µg/mL
- MIC (organism code EE): 0.39 µg/mL
- MIC (organism code FF): 0.39 µg/mL
- MIC (organism code GG): 50 µg/mL
- MIC (organism code HH): 0.39 µg/mL
- MIC (organism code II): 0.2 µg/mL
- MIC (organism code JJ): 0.05 µg/mL
- MIC (organism code KK): 0.05 µg/mL
- MIC (organism code LL): 0.1 µg/mL
- MIC (organism code MM): 12.5 µg/mL
- MIC (organism code NN): 0.39 µg/mL
- MIC (organism code OO): 0.1 µg/mL
- MIC (organism code PP): 0.78 µg/mL
- MIC (organism code QQ): > 100 µg/mL
- MIC (organism code RR): 1.56 µg/mL
- MIC (organism code SS): > 100 µg/mL
- MIC (organism code TT): > 100 µg/mL
- MIC (organism code UU): 3.1 µg/mL
- MIC (organism code VV): 6.2 µg/mL
- MIC (organism code WW): 8 µg/mL
- MIC (organism code XX): 0.06 µg/mL
- MIC (organism code YY): 0.06 µg/mL
- MIC (organism code ZZ): 16 µg/mL
- MIC (organism code ZZA): 1 µg/mL

Structure (SMILES): CCC1OC(=O)C(C)C(=O)C(C)C(OC2OC(C)CC(N(C)C)C2O)C(C)(OCC#Cc2cnc3ccccc3c2)CC(C)C(=O)C(C)C2NC(=O)OC12C (stereo not shown) [Example 247, Compound of Formula (IX): L is CO, T is NH, R is —CH2—C≡C-(3-quinolyl)]
- MIC (organism code AA): 0.05 µg/mL
- MIC (organism code BB): 0.05 µg/mL
- MIC (organism code CC): > 100 µg/mL
- MIC (organism code DD): 0.05 µg/mL
- MIC (organism code EE): 0.05 µg/mL
- MIC (organism code FF): 0.05 µg/mL
- MIC (organism code GG): > 100 µg/mL
- MIC (organism code HH): 0.05 µg/mL
- MIC (organism code II): 0.02 µg/mL
- MIC (organism code JJ): ≤ 0.005 µg/mL
- MIC (organism code KK): 0.01 µg/mL
- MIC (organism code LL): 0.01 µg/mL
- MIC (organism code MM): 0.39 µg/mL
- MIC (organism code NN): 0.1 µg/mL
- MIC (organism code OO): 0.01 µg/mL
- MIC (organism code PP): 0.02 µg/mL
- MIC (organism code QQ): 25 µg/mL
- MIC (organism code RR): 0.2 µg/mL
- MIC (organism code SS): 25 µg/mL
- MIC (organism code TT): > 100 µg/mL
- MIC (organism code UU): 0.39 µg/mL
- MIC (organism code VV): 0.01 µg/mL
- MIC (organism code WW): 1 µg/mL
- MIC (organism code XX): ≤ 0.004 µg/mL
- MIC (organism code YY): ≤ 0.004 µg/mL
- MIC (organism code ZZ): 4 µg/mL
- MIC (organism code ZZA): 0.25 µg/mL

Structure (SMILES): CCC1OC(=O)C(C)C(=O)C(C)C(OC2OC(C)CC(N(C)C)C2O)C(C)(OCC(O)c2ccccc2)CC(C)C(=O)C(C)C2NC(=O)OC12C (single isomer, unassigned) [Example 261A]
- MIC (organism code AA): 6.2 µg/mL (≈ 8.62 µM)
- MIC (organism code BB): 6.2 µg/mL (≈ 8.62 µM)
- MIC (organism code CC): > 100 µg/mL
- MIC (organism code DD): 12.5 µg/mL (≈ 17.4 µM)
- MIC (organism code EE): 12.5 µg/mL (≈ 17.4 µM)
- MIC (organism code FF): 12.5 µg/mL (≈ 17.4 µM)
- MIC (organism code GG): > 100 µg/mL
- MIC (organism code HH): 6.2 µg/mL (≈ 8.62 µM)
- MIC (organism code II): 1.56 µg/mL (≈ 2.17 µM)
- MIC (organism code JJ): 0.39 µg/mL (≈ 0.543 µM)
- MIC (organism code KK): 0.39 µg/mL (≈ 0.543 µM)
- MIC (organism code LL): 0.39 µg/mL (≈ 0.543 µM)
- MIC (organism code MM): > 100 µg/mL
- MIC (organism code NN): 1.56 µg/mL (≈ 2.17 µM)
- MIC (organism code OO): 0.78 µg/mL (≈ 1.09 µM)
- MIC (organism code PP): 3.1 µg/mL (≈ 4.31 µM)
- MIC (organism code QQ): > 100 µg/mL
- MIC (organism code RR): 6.2 µg/mL (≈ 8.62 µM)
- MIC (organism code SS): > 100 µg/mL
- MIC (organism code TT): > 100 µg/mL
- MIC (organism code UU): 25 µg/mL (≈ 34.8 µM)
- MIC (organism code VV): 6.2 µg/mL (≈ 8.62 µM)
- MIC (organism code WW): 64 µg/mL (≈ 89 µM)
- MIC (organism code XX): 1 µg/mL (≈ 1.39 µM)
- MIC (organism code YY): 1 µg/mL (≈ 1.39 µM)
- MIC (organism code ZZ): > 128 µg/mL
- MIC (organism code ZZA): 2 µg/mL (≈ 2.78 µM)

Structure (SMILES): C=CCOC1(C)CC(C)C(=NO)C(C)C(O)C(C)(O)C(CC)OC(=O)C(C)C(=O)C(C)C1OC1OC(C)CC(N(C)C)C1O (stereo not shown) [Example 2, Compound of Formula (VIII): X is NOH, R is allyl]
- MIC (Candida albicans CCH 442 (code TT)): > 100 µg/mL
- MIC (Enterococcus faecism ATCC 8043 (code II)): 6.2 µg/mL
- MIC (Escherichia coli DC-2 (code SS)): > 100 µg/mL
- MIC (Escherichia coli JUHL (code QQ)): > 100 µg/mL
- MIC (Escherichia coli SS (code RR)): 3.1 µg/mL
- MIC (Micrococcus luteus ATCC 4698 (code PP)): 3.1 µg/mL
- MIC (Micrococcus luteus ATCC 9341 (code OO)): 1.56 µg/mL
- MIC (Mycobacterium smegmatis ATCC 114 (code UU)): 25 µg/mL
- MIC (Nocardia Asteroides ATCC9970 (code VV)): 0.2 µg/mL
- MIC (Staphylococcus aureus 1775 (code GG)): > 100 µg/mL
- MIC (Staphylococcus aureus A5177 (code BB)): 3.1 µg/mL
- MIC (Staphylococcus aureus A-5278 (code CC)): > 100 µg/mL
- MIC (Staphylococcus aureus ATCC 6538P (code AA)): 3.1 µg/mL
- MIC (Staphylococcus aureus CMX 553 (code FF)): 3.1 µg/mL
- MIC (Staphylococcus aureus CMX 642A (code DD)): 3.1 µg/mL
- MIC (Staphylococcus aureus NCTC10649M (code EE)): 1.56 µg/mL
- MIC (Staphylococcus epidermidis 3519 (code HH)): 6.2 µg/mL
- MIC (Streptococcus agalactiae CMX 508 (code KK)): 1.56 µg/mL
- MIC (Streptococcus bovis A-5169 (code JJ)): 3.1 µg/mL
- MIC (Streptococcus pyogenes 930 (code MM)): > 100 µg/mL
- MIC (Streptococcus pyogenes EES61 (code LL)): 3.1 µg/mL
- MIC (Streptococcus pyogenes PIU 2548 (code NN)): 3.1 µg/mL

Source: patent publication USRE39591E1, “6-O-substituted ketolides having antibacterial activity” (Abbott Laboratories, priority 1996, dated 2007)
